Assay [1] in a line: Dissociation binding constant was determined for apoNCS binding site using fluorescence quenching titration assay.
For assay [2], the system named is K562. Put plainly: Cytotoxicity against human leukemia cell line K562. Type of assay: functional, cell-based.
Assay [3] can be described thus: Dissociation binding constant was determined for apoNCS binding site using fluorescence quenching titration assay; Insufficient change in fluorescence.

One may read the Kd as the equilibrium constant for the complex coming apart. Read a low Kd as higher affinity. In general, IC50 refers to the concentration needed to halve the response being measured. Higher therefore signals weaker potency. As to `COc1cc(C)c2ccc(O)c(C(=O)OCCOC(=O)C(N)Cc3ccc(N(CCCl)CCCl)cc3)c2c1` (configuration not stated), in assay [1], the Kd is 47 µM. The molecule further gave a half-inhibitory concentration (IC50) in assay [2] of 7 µM.

Consider `COc1cc(C)c2ccc(O)c(C(=O)OCCOC(=O)CCCc3ccc(N(CCCl)CCCl)cc3)c2c1`, for which the equilibrium dissociation constant (Kd) in assay [1] is > 1000 µM. Further, in assay [2], the half-inhibitory concentration (IC50) amounted to 200 µM. The molecule `O=C(O)CCCc1ccc(N(CCCl)CCCl)cc1` [CHLORAMBUCIL] displayed an IC50 in assay [2] of 95 µM. For the molecule `N[C@@H](Cc1ccc(N(CCCl)CCCl)cc1)C(=O)O` [MELPHALAN], the dissociation constant (Kd) entry in assay [3] is on record as “Insufficient change in fluorescence”. This molecule displayed an IC50 in assay [2] of 30 µM.

Source of the values: ChEMBL document CHEMBL1137988, “Design and synthesis of a nitrogen mustard derivative stabilized by apo-neocarzinostatin” (J Med Chem, 2004).
